Earlier results in patent publication US20110033536A1, “24-HOUR SUSTAINED-RELEASE METOCLOPRAMIDE” (POSIVISIONARY SOLUTIONS LLP, priority 2008, published 2011).

CCN(CC)CCNC(=O)c1cc(Cl)c(N)cc1OC [metoclopramide]
Plasma concentrations at which undesirable side effects (akathisia) are present (literature (Bateman 1979; Parlak 2005)): above 100 nanograms per milliliter
Plasma concentrations related to extrapyramidal effects (akathisia) (relationship stated as determined, no own test): above 120 ng/ml
